The test system of experiment [1] is B. anthracis Sterne vegetative bacteria. Conditions: 24 h.
The subject of experiment [2] is B. anthracis Sterne spores. Put plainly: microbe, parasite or virus in culture. Conditions: Bacillus anthracis, 3 h, pH 7.4, read-out: Sporicidal EC50 (95% Confidence Interval).
Experiment [3] concerns B. anthracis Sterne spores. Also on record: species or system Galleria mellonella. Conditions: in vivo.
A further experiment relates to B. anthracis. Conditions: mouse, in vivo, sc; cited from earlier work.

Converted amounts (≈) assume the structure as drawn. “And” between values parts separate entries of the source, which are not always exact repeats. Equal values may be shown once. Ends that are not written are not given here. Peptide text beside a SMILES is read from it.

One may read the MIC as the lowest concentration that inhibits growth of the organism. A low value points to inhibition by little substance. “GLKLRFEFSKIKGEFLKTPEVRFRDIKLKDNRISVQR [Scrambled LL-37]” displayed an MIC in experiment [1] of more than 150 µM.

For orientation: EC50 means the concentration giving half of the maximal effect. Turning to `O=C(O)c1cn(C2CC2)c2cc(N3CCNCC3)c(F)cc2c1=O` [Ciprofloxacin], the EC50 in experiment [2] was 70.8 µg/mL and > 100 µM. In experiment [3], the “Rescue of infected waxworms by ciprofloxacin” value is given as 100% and the “Survival (%) of B. anthracis infected G. mellonella larvae” value worked out at 100%.

Consider `CC(C)C[C@H](NC(=O)[C@H](CCCNC(=N)N)NC(=O)CNC(=O)CNC(=O)[C@@H](N)CCCNC(=N)N)C(=O)N[C@@H](CS)C(=O)N[C@@H](Cc1ccc(O)cc1)C(=O)N[C@@H](CS)C(=O)N[C@@H](CCCNC(=N)N)C(=O)N[C@@H](CCCNC(=N)N)C(=O)N[C@@H](CCCNC(=N)N)C(=O)N[C@@H](Cc1ccccc1)C(=O)N[C@@H](CS)C(=O)N[C@H](C(=O)N[C@@H](CS)C(=O)N[C@H](C(=O)NCC(=O)N[C@@H](CCCNC(=N)N)C(=O)O)C(C)C)C(C)C` [PG-1] (H-RGGRLCYCRRRFCVCVGR-OH; N-terminus and C-terminus assumed), for which the “Survival of infected mice” value in the experiment with B. anthracis was 80%. Also, in experiment [1], the MIC worked out at 7.41 µM (≈ 16 µg/mL). In experiment [1], `CC[C@H](C)[C@H](NC(=O)[C@H](CCCCN)NC(=O)[C@H](CCC(=O)O)NC(=O)[C@H](CCCCN)NC(=O)[C@H](CO)NC(=O)[C@H](CCCCN)NC(=O)[C@H](CCCNC(=N)N)NC(=O)[C@H](Cc1ccccc1)NC(=O)[C@H](Cc1ccccc1)NC(=O)[C@H](CC(=O)O)NC(=O)CNC(=O)[C@H](CC(C)C)NC(=O)[C@@H](N)CC(C)C)C(=O)NCC(=O)N[C@@H](CCCCN)C(=O)N[C@@H](CCC(=O)O)C(=O)N[C@@H](Cc1ccccc1)C(=O)N[C@@H](CCCCN)C(=O)N[C@@H](CCCNC(=N)N)C(=O)N[C@H](C(=O)N[C@H](C(=O)N[C@@H](CCC(N)=O)C(=O)N[C@@H](CCCNC(=N)N)C(=O)N[C@H](C(=O)N[C@@H](CCCCN)C(=O)N[C@@H](CC(=O)O)C(=O)N[C@@H](Cc1ccccc1)C(=O)N[C@@H](CC(C)C)C(=O)N[C@@H](CCCNC(=N)N)C(=O)N[C@@H](CC(N)=O)C(=O)N[C@@H](CC(C)C)C(=O)N[C@H](C(=O)N1CCC[C@H]1C(=O)N[C@@H](CCCNC(=N)N)C(=O)N[C@H](C(=O)N[C@@H](CCC(=O)O)C(=O)N[C@@H](CO)C(=O)O)[C@@H](C)O)C(C)C)[C@@H](C)CC)C(C)C)[C@@H](C)CC` [LL-37] showed an MIC of 7.12 µM (≈ 32 µg/mL). Consider “GLLRKGGEKIGEKLKKIGQKIKNFFQKLVPQPEQ [mCRAMP]”, for which the MIC in experiment [1] is given as 16.5 µM.

(Values after publication PMC6104695 (Virulence, 2017).)
